The values that follow come from article PMC3237458, “PEGylation Potentiates the Effectiveness of an Antagonistic Peptide That Targets the EphB4 Receptor with Nanomolar Affinity” (PLoS ONE, 2011).

“Also recorded” adds a separate entry of the source. Square brackets hold non-standard residues; d marks the D form. Peptide text beside a SMILES is read from it. * marks the point of attachment. Biotin = O=C1N[C@H]2[C@H](CS[C@H]2CCCCC(=O)*)N1; Ahx = NCCCCCC(=O)O

Series [1] is described as follows: Peptide stability in mouse serum ex vivo. Format: in vitro ADME. As to conditions: 37°C.
In series [2] the target is T1, EphB4-ephrin-B2 binding (Mus musculus, UniProt P54761).
T1 construct: EphB4 Fc, a soluble dimeric form of the EphB4 extracellular domain fused to Fc; purchased R&D Systems, Minneapolis, MN (EphB4 Fc); ephrin-B2 AP made in house from a GeneHunter plasmid; host or cells: HEK 293T cells for ephrin-B2 AP
T1 sequence (P54761 16-539 limits assumed): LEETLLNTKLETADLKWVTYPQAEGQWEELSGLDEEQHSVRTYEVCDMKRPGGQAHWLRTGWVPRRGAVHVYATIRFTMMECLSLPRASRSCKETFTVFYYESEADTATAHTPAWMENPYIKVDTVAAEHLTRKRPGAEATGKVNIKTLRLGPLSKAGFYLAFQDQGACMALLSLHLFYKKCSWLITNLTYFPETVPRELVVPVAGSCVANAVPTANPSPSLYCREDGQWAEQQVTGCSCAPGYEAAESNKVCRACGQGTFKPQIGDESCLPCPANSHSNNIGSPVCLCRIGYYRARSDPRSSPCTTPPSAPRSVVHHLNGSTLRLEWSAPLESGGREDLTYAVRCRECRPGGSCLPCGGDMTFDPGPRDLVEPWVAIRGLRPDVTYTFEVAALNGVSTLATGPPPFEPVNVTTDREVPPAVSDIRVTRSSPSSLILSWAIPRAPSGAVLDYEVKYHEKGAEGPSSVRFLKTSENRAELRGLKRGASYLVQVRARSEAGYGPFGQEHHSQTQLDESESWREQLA
In words: ELISA inhibition of EphB4-ephrin-B2 binding (ephrin-B2 AP on immobilized EphB4 Fc). As to conditions: incubated in conditioned medium for 4 hours before ELISA; Figure 1C. Here is the method: Alkaline phosphatase (AP) fusion proteins were produced by transiently transfecting the mouse EphB4 AP [70] or mouse ephrin-B2 AP plasmids (GeneHunter, Nashville, TN) in HEK 293T cells and growing the cells in serum-free Opti-MEM medium for 2–4 days. If necessary, the culture medium containing the secreted AP protein was concentrated by centrifugation in Amicon 30,000 MW cutoff filters (Millipore, Inc., Temecula, CA). EphB4 and ephrin-B2 AP concentrations were calculated from alkaline phosphatase activity.
EphB4 Fc (1 µg/ml in TBST) was immobilized in protein A-coated plates and incubated for 3 hours with 0.02 nM ephrin-B2 AP in culture medium diluted in TBST in the presence of different concentrations of TNYL-RAW, TNYL-RAW-Fc, TNYL-RAW-streptavidin and PEG-TNYL-RAW. Bound ephrin-B2 AP was quantified by adding pNPP as the substrate and measuring the absorbance at 405 nm. Alkaline phosphatase activity from wells where human Fc (R&D Systems, Minneapolis, MN) was added instead of EphB4 Fc was subtracted as the background. The binding curves were analyzed using non linear regression and the program Prism (GraphPad Software Inc.).

The subject of another series is HUVECs and EMCs. Nature of the series: Capillary-like tube formation on Matrigel. The series is classed as cell-based. To be noted: HUVECs and EMCs 2:1, Matrigel, 15 hours; TNYL-RAW tested up to 20 µM; Figure 6. As to the method: An EMC clone expressing EGFP was generated by transducing EMCs (a kind gift from H. Eid) with a lentiviral construct followed by clonal selection. To generate capillary-like tubes, HUVECs (2.8×10^4), EMCs (7.5×10^4) or a mixture of the two cell types (2.8×10^4 HUVECs and 1.4×10^4 EMCs) were grown for 5 to 20 hours in 24-well tissue culture plates (Corning, Corning, NY) precoated with 80 µl Matrigel (BD Bioscience, San Jose, CA) in Medium 200 or DMEM complete culture medium containing PEG-TNYL-RAW or PEG control. In some experiments, mixed cultures were treated with TNYL-RAW or DMSO control. The cells were then fixed for 15 min in 4% formaldehyde in PBS and photographed under a fluorescence microscope. Tube length was quantified using ImageJ software.

For series [3], the target named is EphB4-ephrin-B2 binding. To be noted: ELISA assays; read-out: IC50 for inhibition of EphB4-ephrin-B2 binding; cited from earlier work. The source says:
An explanation for the discrepancy in the potency of the peptide in biochemical and cell culture assays could be that TNYL-RAW is susceptible to degradation by proteases present in cell culture medium. For example, trypsin-like proteases are l ...
On the technique in general: ELISA stands for enzyme-linked immunosorbent assay.

A further series deals with mouse EphB4. As to conditions: mouse EphB4, surface plasmon resonance; cited from earlier work. The text has this:
(§1) Inhibiting EphB4-ephrin-B2 interaction could therefore be useful for diverse medical applications. […] A 15 amino acid-long EphB4 antagonistic peptide, TNYL-RAW (TNYLFSPNGPIARAW), could represent an alternative to the large EphB4 e ...

The subject of the next series is Eph receptors. As to conditions: cited from earlier work.
Description: as §1

The next series has as its target human EphB4. To be noted: human EphB4, isothermal titration calorimetry; cited from earlier work.
Description: as §1
On the technique in general: ITC needs no label: the signal is the heat of the interaction.

Series [4] can be described thus: Peptide retention in mouse blood circulation. The series is classed as in vivo. To be noted: 6 nmoles biotinylated TNYL-RAW IV, 3 mice, serum diluted 1:20, ELISA on EphB4 Fc; Figure 1D. As to the method:
2.1 nmoles TNYL-RAW-Fc, 1.5 nmoles TNYL-RAW-streptavidin and 6 nmoles PEG-TNYL-RAW, diluted in 150 µl sterile PBS, were administered to C57BL/6 mice by intravenous or intraperitoneal injection. Blood was collected from each mouse from the orbital sinus at two time points after injection and by cardiac puncture under Avertin anesthesia at a third time point. These experiments were carried out in accordance with the recommendations in the Guide for the Care and Use of Laboratory Animals of the National Institutes of Health. The protocol was approved by the Institutional Animal Care and Use Committee of the Sanford-Burnham Medical Research Institute (Animal Assurance Number: A-3053-1). After collection, the blood was […], and the serum was stored at −20°C. The different forms of TNYL-RAW in the serum were detected by using the same ELISA assays described above for measurements of binding affinity. The absorbance from wells incubated with mouse serum without TNYL-RAW was subtracted as the background and the concentration of TNYL-RAW in the blood was calculated based on a standard curve generated using serum containing known TNYL-RAW concentrations. The half-life of each peptide was estimated by using non linear regression and the program Prism (GraphPad Software Inc.). The area under the curve (AUC) was expressed as % ID•hours/ml (where ID is the initial dose of peptide injected) and calculated by dividing the AUC value obtained using the program Prism by the amount of injected peptide and multiplying by 100.

As usually defined, the IC50 is the concentration needed to halve the response being measured. As a reminder, the Kd is the equilibrium constant for the complex coming apart. For `CC[C@H](C)[C@H](NC(=O)[C@@H]1CCCN1C(=O)CNC(=O)[C@H](CC(N)=O)NC(=O)[C@@H]1CCCN1C(=O)[C@H](CO)NC(=O)[C@H](Cc1ccccc1)NC(=O)[C@H](CC(C)C)NC(=O)[C@H](Cc1ccc(O)cc1)NC(=O)[C@H](CC(N)=O)NC(=O)[C@@H](N)[C@@H](C)O)C(=O)N[C@@H](C)C(=O)N[C@@H](CCCNC(=N)N)C(=O)N[C@@H](C)C(=O)N[C@@H](Cc1c[nH]c2ccccc12)C(=O)NCCCCCC(=O)N[C@@H](CCCCNC(=O)CCCC[C@@H]1SC[C@@H]2NC(=O)N[C@@H]21)C(N)=O` [TNYL-RAW] (H-TNYLFSPNGPIARAW[Ahx]K(Biotin)-NH2; N-terminus and C-terminus assumed), in series [1] (mouse serum, mixture of protease inhibitors, ELISA, Fig. 1E), the “Loss in mouse serum ex vivo with protease inhibitors” value is given as “partially counteracted by a mixture of protease inhibitors”. In series [1] (undiluted mouse serum, functional peptide by ELISA, Figures 1E, 3B), the “Stability in mouse serum ex vivo” value was “rapidly lost”. Besides, the “Ability to inhibit ephrin-B2-EphB4 interaction after incubation in PC3 cell conditioned medium” value at EphB4-ephrin-B2 binding [2] is listed as “abolished the ability of TNYL-RAW to inhibit ephrin-B2-EphB4 interaction”. Further, the “Effect on capillary-like tube formation in co-cultures at different concentrations” value with HUVECs and EMCs is “does not have significant effects; also recorded: does not have a significant effect”. Also, the IC50 on EphB4-ephrin-B2 binding [3] is about 15 nM. Further, the Kd on mouse EphB4 was 3 nM; at human EphB4 it was 70 nM. For the same compound, in the series on Eph receptors, the “Selectivity of binding among Eph receptors” value is listed as “selectively binds to EphB4 but not any other Eph receptor”. Moreover, the “Detection in mouse serum 30 min after intravenous administration” value in series [4] is recorded as “could not be detected; also recorded: undetectable”.
